Experimental data published in ChEMBL document CHEMBL5244230, “Artemisinin-derived hybrids and their anticancer activity” (Eur J Med Chem, 2020).
≈ marks a conversion by molar mass, not a printed value. Where “and” joins values, the source holds several entries; their conditions need not be identical. Equal entries are not always repeated. Blank lines part the entries; values can stand above or below the molecule they belong to.

What was measured:
MCF7 [1] = test: Anticancer activity against human MCF7 cells; type: functional, cell-based
HL-60 [2] = test: Antiproliferative activity against human HL-60 cells; type: functional, cell-based
HepG2 = test: Antiproliferative activity against human HepG2 cells; type: functional, cell-based
[3] = Cytotoxicity against CHO cells; type: toxicity, cell-based, Cricetulus griseus; conditions: Chinese hamster
TK-10 [4] = test: Anticancer activity against human TK-10 cells; type: functional, cell-based
UACC-62 [5] = test: Anticancer activity against human UACC-62 cells; type: functional, cell-based
TK-10 [6] = test: Anticancer activity against human TK-10 cells assessed as total growth inhibition; type: functional
UACC-62 [7] = test: Anticancer activity against human UACC-62 cells assessed as total growth inhibition; type: functional
MCF7 [8] = test: Anticancer activity against human MCF7 cells assessed as total growth inhibition; type: functional
[9] = Blood clearance in rat at 100 mg/kg, po; type: ADME, organism-based
A549 = test: Antiproliferative activity against human A549 cells; type: functional, cell-based
K562 = test: Antiproliferative activity against human K562 cells; type: functional, cell-based
PC-3 = test: Antiproliferative activity against human PC-3 cells; type: functional, cell-based
A-431 = test: Antiproliferative activity against human A-431 cells; type: functional, cell-based
MDA-MB-231 = test: Antiproliferative activity against human MDA-MB-231 cells; type: functional, cell-based; conditions: Homo sapiens, MDA-MB-231
COLO 205 = test: Antiproliferative activity against human COLO 205 cells; type: functional, cell-based
HEK293 = test: Antiproliferative activity against human HEK293 cells; type: functional, cell-based
[10] = Cytotoxicity against human HEK293 cells; type: toxicity, cell-based
HCT-116 [11] = test: Antiproliferative activity against human HCT-116 cells assessed as reduction in cell viability; type: functional, cell-based; conditions: hct-116
HeLa [12] = test: Antiproliferative activity against human HeLa cells assessed as reduction in cell viability; type: functional, cell-based
Leukemia cell [13] = test: Antiproliferative activity against human Leukemia cell assessed as reduction in cell viability; type: functional, cell-based
HeLa [14] = test: Potency index, ratio of artesunate IC50 to test compound IC50 for antiproliferative activity against human HeLA cells assessed as inhibition of cell growth; type: functional
HCT-116 [15] = test: Potency index, ratio of artesunate IC50 to test compound IC50 for antiproliferative activity against human HCT-116 cells assessed as inhibition of cell growth; type: functional
Leukemia cell [16] = test: Potency index, ratio of artesunate IC50 to test compound IC50 for antiproliferative activity against human Leukemia cell assessed as inhibition of cell growth; type: functional
TRAMP-C1A = test: Cytotoxicity against mouse TRAMP-C1A cells assessed as inhibition of cell growth measured for 72 hrs by MTT assay; type: functional
TRAMP-C2H = test: Cytotoxicity against mouse TRAMP-C2H cells assessed as inhibition of cell growth measured for 72 hrs by MTT assay; type: functional
LNCaP = test: Cytotoxicity against human LNCaP cells assessed as inhibition of cell growth measured for 72 hrs by MTT assay; type: functional
MCF7 [17] = test: Antiproliferative activity against doxorubicin resistant human MCF7 cells; type: functional, cell-based
[18] = Antiproliferative activity against mouse P388 cells assessed as reduction in cell viability measured after 72 hrs; type: functional, cell-based; conditions: 72 h
HL-60 [19] = test: Antiproliferative activity against human HL-60 cells assessed as reduction in cell viability measured after 72 hrs; type: functional, cell-based; conditions: HL-60, 72 h
P388/ADR [20] = test: Antiproliferative activity against mouse P388/ADR cells assessed as reduction in cell viability measured after 72 hrs; type: functional, cell-based; conditions: 72 h
P388 = test: Potency index, ratio of test compound IC50 to dihydroartemisinin IC50 for antiproliferative activity against mouse P388 cells assessed as reduction in cell viability measured after 72 hrs; type: functional
HL-60 [21] = test: Potency index, ratio of test compound IC50 to dihydroartemisinin IC50 for antiproliferative activity against human HL-60 cells assessed as reduction in cell viability measured after 72 hrs; type: functional
P388/ADR [22] = test: Potency index, ratio of test compound IC50 to dihydroartemisinin IC50 for antiproliferative activity against mouse P388/ADR cells assessed as reduction in cell viability measured after 72 hrs; type: functional
DLD-1 = test: Cytotoxicity against human DLD-1 cells assessed as cell growth inhibition measured after 48 hrs by MTT assay; type: functional
HSC-2 = test: Cytotoxicity against human HSC-2 cells; type: functional, cell-based
Ca9-22 = test: Cytotoxicity against human Ca9-22 cells; type: functional, cell-based
[23] = Cytotoxicity against human U87 cells assessed as cell growth inhibition measured after 48 hrs by MTT assay; type: functional, U-87MG ATCC; conditions: U-87 MG
HeLa [24] = test: Cytotoxicity against human HeLa cells assessed as cell growth inhibition measured after 48 hrs by MTT assay; type: functional
SiHa = test: Cytotoxicity against human SiHa cells assessed as cell growth inhibition measured after 48 hrs by MTT assay; type: functional
A 172 = test: Cytotoxicity against human A-172 cells assessed as cell growth inhibition measured after 48 hrs by MTT assay; type: functional
B16 = test: Cytotoxicity against mouse B16 cells assessed as cell growth inhibition measured after 48 hrs by MTT assay; type: functional

Structure (SMILES): C[C@H]1[C@@H](NC(=O)CCCCCCC(=O)NO)O[C@@H]2O[C@@]3(C)CC[C@H]4[C@H](C)CC[C@@H]1[C@@]24OO3 (racemic)
IC50 (MCF7 [1]): 1.28 µg/mL | IC50 (HL-60 [2]): 1.28 µg/mL (≈ 2.82 µM) | IC50 (HepG2): 1.28 µg/mL (≈ 2.82 µM)

Structure (SMILES): C[C@H]1[C@@H](OCC[N+]2(CCO[C@H]3O[C@@H]4O[C@@]5(C)CC[C@H]6[C@H](C)CC[C@@H]([C@H]3C)[C@@]46OO5)CCN(CCNc3ccnc4cc(Cl)ccc34)CC2)O[C@@H]2O[C@@]3(C)CC[C@H]4[C@H](C)CC[C@@H]1[C@@]24OO3.[Br-]
IC50 [3]: 74.8 µM | GI50 (MCF7 [1]): 0.03 µM | GI50 (TK-10 [4]): 0.03 µM | GI50 (UACC-62 [5]): 0.03 µM | TGI (TK-10 [6]): 2.21 µM | TGI (UACC-62 [7]): 2.21 µM | TGI (MCF7 [8]): 2.21 µM | CL/F [9]: 287 L/h/kg

Structure (SMILES): C[C@H]1[C@@H](OCCN(CCCNc2ccnc3cc(Cl)ccc23)CCO[C@H]2O[C@@H]3O[C@@]4(C)CC[C@H]5[C@H](C)CC[C@@H]([C@H]2C)[C@@]35OO4)O[C@@H]2O[C@@]3(C)CC[C@H]4[C@H](C)CC[C@@H]1[C@@]24OO3
IC50 [3]: 0.68 µM | GI50 (MCF7 [1]): 0.03 µM | GI50 (TK-10 [4]): 0.03 µM | GI50 (UACC-62 [5]): 0.03 µM | TGI (TK-10 [6]): 2.21 µM | TGI (UACC-62 [7]): 2.21 µM | TGI (MCF7 [8]): 2.21 µM | CL/F [9]: 184 L/h/kg

Structure (SMILES): C[C@H]1[C@@H](OCc2cn(-c3ccc(O)cc3)nn2)O[C@@H]2O[C@@]3(C)CC[C@H]4[C@H](C)CC[C@@H]1[C@@]24OO3
IC50 (A549): 4.06 µM | IC50 (K562): 4.06 µM | IC50 (PC-3): 4.06 µM | IC50 (A-431): 4.06 µM | IC50 (MDA-MB-231): 4.06 µM | IC50 (COLO 205): 4.06 µM | IC50 (HEK293): 4.06 µM | IC50 [10]: > 100 µg/mL

Structure (SMILES): C[C@H]1[C@@H](CC(COP(=O)(Oc2ccccc2)Oc2ccccc2)C[C@H]2O[C@@H]3O[C@]4(C)CC[C@H]5[C@H](C)CC[C@@H]([C@H]2C)[C@@]35OO4)O[C@@H]2O[C@@]3(C)CC[C@H]4[C@H](C)CC[C@@H]1[C@@]24OO3 (stereo not given in full)
IC50 (HCT-116 [11]): 0.04 µM and 0.19 µM | IC50 (HeLa [12]): 0.04 µM | IC50 (Leukemia cell [13]): 0.1 µM | Ratio IC50 (HeLa [14]): 68.8 | Ratio IC50 (HCT-116 [15]): 68.8 | Ratio IC50 (Leukemia cell [16]): 68.8 | GI50 (TRAMP-C1A): 0.0319 µM | GI50 (TRAMP-C2H): 0.0448 µM | GI50 (LNCaP): 0.0344 µM

Structure (SMILES): C[C@H]1[C@@H](Oc2ccc(Cn3ccnn3)cc2)O[C@@H]2O[C@@]3(C)CC[C@H]4[C@H](C)CC[C@@H]1[C@@]24OO3
IC50 (MCF7 [17]): 0.047 µM | IC50 [18]: 0.047 µM | IC50 (HL-60 [19]): 0.065 µM | IC50 (P388/ADR [20]): 2.89 µM | Ratio IC50 (P388): 4.6 | Ratio IC50 (HL-60 [21]): 4.6 | Ratio IC50 (P388/ADR [22]): 4.6

Structure (SMILES): C[C@H]1[C@@H](OCc2cn(-c3ccccc3C(=O)/C=C/c3ccccc3C(F)(F)F)nn2)O[C@@H]2O[C@@]3(C)CC[C@H]4[C@H](C)CC[C@@H]1[C@@]24OO3
IC50 (A549): 4.06 µM | IC50 (K562): 4.06 µM | IC50 (PC-3): 4.06 µM | IC50 (A-431): 4.06 µM | IC50 (MDA-MB-231): 4.06 µM | IC50 (COLO 205): 4.06 µM | IC50 (HEK293): 4.06 µM | IC50 [10]: > 100 µg/mL

IC50 (MCF7 [1]): > 40 µM
Structure (SMILES): CC(=O)O[C@H]1C(=O)[C@@]2(C)[C@H]([C@H](OC(=O)c3ccccc3)[C@]3(O)C[C@H](OC(=O)[C@H](O)[C@@H](NC(=O)c4ccccc4)c4ccccc4)C(C)=C1C3(C)C)[C@]1(OC(C)=O)CO[C@@H]1C[C@@H]2O [PACLITAXEL]
GI50 (DLD-1): 0.01 µM | IC50 (HSC-2): > 100 µM | IC50 (Ca9-22): > 100 µM | GI50 [23]: 0.01 µM | GI50 (HeLa [24]): 0.01 µM | GI50 (SiHa): 0.01 µM | GI50 (A 172): 0.01 µM | GI50 (B16): 0.01 µM
